Assay [1] can be described thus: MALME3 melanoma cell viability reduction, dose response, orthogonal assay for MITF inhibitor project, CellTiter-Glo luminescence, dry powder, set 5 (AID 651584). Conditions: MALME3 melanoma viability, CellTiter-Glo ATP luminescence, 24 h; at 35 µM (top of the series). For orientation: Cellular ATP, detected with luciferase, serves as a proxy for viable cell number.
The test system of assay [2] is MALME3 melanoma viability, CellTiter-Glo ATP luminescence, 24 h. The description is as above.

SMILES strings stand for the structures. “And” between values parts separate entries of the source, which are not always exact repeats. Equal values may be shown once. The source made the active and inactive calls.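 How the source made its calls: active means viability loss whose fitted half-maximal potency is at most twice the top valid dose for that sample; inconclusive means flat curve with 30 to 70% viability loss, or poor fit; inactive means the rest.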

With `NC1=C(NS(=O)(=O)c2ccc(Br)s2)C(=O)c2ccccc2C1=O`, the activity change, negative = viability loss in assay [1] was -3.99% (inactive).
Turning to `O=C1C=C(Nc2ccccc2)C(=O)c2ccccc21`, the half-maximal activity concentration (AC50) in assay [2] is 5.86 µM and 28.4 µM.

As a reminder, the AC50 is the midpoint of the concentration-response curve, whichever way the signal moves.

For the origin of these results see PubChem BioAssay AID651584 (Broad Institute, 2012).
